In article PMC4503722, “Novel Phenotypic Outcomes Identified for a Public Collection of Approved Drugs from a Publicly Accessible Panel of Assays” (PLoS ONE, 2015):

Experiments:
hKDR = target: T1, hKDR (Homo sapiens, UniProt P35968); assay: Cerep LANCE kinase assay hKDR (S1 assay 32); format: biochemical; conditions: for hKDR LANCE IC50/EC50: assay number 32
T1 construct: purchased Cerep (LANCE kinase assay platform, contract assay)

hGSK3b = target: T2, hGSK3b (Homo sapiens, UniProt P49841); assay: Cerep LANCE kinase assay hGSK3b (S1 assay 34); format: biochemical; conditions: for hGSK3b LANCE IC50/EC50: assay number 34
T2 construct: purchased Cerep (LANCE kinase assay platform, contract assay)

[1] = test system: ECFC/ADSC co-culture cell nuclei number
[2] = test system: alkaline phosphatase (ALP) activity in C2C12 cells; format: cell-based; conditions: concentration response; for WntCondMedia_Alk Phos C2C12 IC50/EC50: assay number 6
[3] = test system: endothelial tube formation in co-cultures of ECFCs and ADSCs treated with VEGF; assay: cells; format: cell-based, human
HeLa cells = assay: cells; format: cell-based; conditions: for Hela CellCycMod PI 2N IC50/EC50: assay number 14; for Hela CellCycMod PI 4N IC50/EC50: assay number 16; for Hela CellCycMod PI MI IC50/EC50: assay number 17; for Hela CellCycMod PI Cell Number IC50/EC50: assay number 18; for Hela CellCycMod PI S Phase IC50/EC50: assay number 15
hJAK2 = target: T3, hJAK2 (Homo sapiens, UniProt O60674); assay: Cerep LANCE kinase assay hJAK2 (S1 assay 33); format: biochemical; conditions: for hJAK2 LANCE IC50/EC50: assay number 33
T3 construct: purchased Cerep (LANCE kinase assay platform, contract assay)

hp70S6K1 (RPS6KB1) = target: T4, hp70S6K1 (RPS6KB1) (Homo sapiens, UniProt P23443); assay: Cerep LANCE kinase assay hp70S6K1 (S1 assay 31); format: biochemical; conditions: for hp70S6K1 LANCE IC50/EC50: assay number 31
T4 construct: purchased Cerep (LANCE kinase assay platform, contract assay)

hFLT3 = target: T5, hFLT3 (Homo sapiens, UniProt P36888); assay: Cerep LANCE kinase assay hFLT3 (S1 assay 35); format: biochemical; conditions: for hFLT3 LANCE IC50/EC50: assay number 35
T5 construct: purchased Cerep (LANCE kinase assay platform, contract assay)

[4] = test system: nuclear β-catenin in C2C12 cells; assay: cells; format: cell-based; conditions: concentration response; for WntCondMedia_bCatenin C2C12 IC50/EC50: assay number 5
HT-29 = assay: cells; format: cell-based; conditions: basal
HCT116 = assay: cells; format: cell-based; conditions: basal
DLD-1 = assay: cells; format: cell-based; conditions: basal
[5] = test system: HCT116 cells treated with a GSK3β inhibitor; assay: cells; format: cell-based; conditions: GSK3b inh pretreated
RKO = assay: cells; format: cell-based; conditions: basal
SW480 = assay: cells; format: cell-based; conditions: basal

T1 sequence (P35968 20-1356): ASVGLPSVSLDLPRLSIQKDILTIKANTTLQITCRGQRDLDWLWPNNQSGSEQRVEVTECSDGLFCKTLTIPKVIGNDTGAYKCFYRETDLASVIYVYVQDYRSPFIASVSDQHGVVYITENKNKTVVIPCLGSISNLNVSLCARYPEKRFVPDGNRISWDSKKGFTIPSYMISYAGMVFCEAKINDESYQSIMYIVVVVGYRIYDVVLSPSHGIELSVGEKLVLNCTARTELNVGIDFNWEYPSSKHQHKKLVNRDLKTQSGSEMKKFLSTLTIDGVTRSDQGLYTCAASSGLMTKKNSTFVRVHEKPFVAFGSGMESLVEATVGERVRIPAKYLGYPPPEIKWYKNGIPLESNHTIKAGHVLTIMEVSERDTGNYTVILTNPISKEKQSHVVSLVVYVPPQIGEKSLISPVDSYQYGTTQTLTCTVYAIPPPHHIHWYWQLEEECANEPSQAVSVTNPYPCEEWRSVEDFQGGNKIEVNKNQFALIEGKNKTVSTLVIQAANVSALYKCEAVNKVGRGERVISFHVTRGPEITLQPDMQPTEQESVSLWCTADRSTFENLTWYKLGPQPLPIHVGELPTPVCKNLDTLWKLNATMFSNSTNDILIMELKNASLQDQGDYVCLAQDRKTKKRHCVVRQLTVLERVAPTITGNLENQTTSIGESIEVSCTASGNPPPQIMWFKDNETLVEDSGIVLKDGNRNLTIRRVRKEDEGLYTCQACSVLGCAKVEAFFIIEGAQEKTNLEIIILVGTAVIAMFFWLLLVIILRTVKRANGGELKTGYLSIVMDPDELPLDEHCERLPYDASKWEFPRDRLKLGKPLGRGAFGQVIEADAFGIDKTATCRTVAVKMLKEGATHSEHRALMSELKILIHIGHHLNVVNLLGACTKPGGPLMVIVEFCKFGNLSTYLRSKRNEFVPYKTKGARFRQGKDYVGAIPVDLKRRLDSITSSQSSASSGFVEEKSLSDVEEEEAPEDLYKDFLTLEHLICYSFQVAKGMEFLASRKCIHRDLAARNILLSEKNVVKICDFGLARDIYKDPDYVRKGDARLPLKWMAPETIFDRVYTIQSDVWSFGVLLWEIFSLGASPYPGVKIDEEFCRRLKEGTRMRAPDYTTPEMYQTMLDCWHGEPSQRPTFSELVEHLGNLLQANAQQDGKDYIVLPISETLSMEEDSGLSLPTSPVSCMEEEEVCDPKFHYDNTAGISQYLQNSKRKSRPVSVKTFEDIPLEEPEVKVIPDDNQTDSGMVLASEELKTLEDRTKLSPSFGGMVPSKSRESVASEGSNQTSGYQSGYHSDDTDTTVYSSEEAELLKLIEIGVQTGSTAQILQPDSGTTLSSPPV
T2 sequence (P49841 whole entry): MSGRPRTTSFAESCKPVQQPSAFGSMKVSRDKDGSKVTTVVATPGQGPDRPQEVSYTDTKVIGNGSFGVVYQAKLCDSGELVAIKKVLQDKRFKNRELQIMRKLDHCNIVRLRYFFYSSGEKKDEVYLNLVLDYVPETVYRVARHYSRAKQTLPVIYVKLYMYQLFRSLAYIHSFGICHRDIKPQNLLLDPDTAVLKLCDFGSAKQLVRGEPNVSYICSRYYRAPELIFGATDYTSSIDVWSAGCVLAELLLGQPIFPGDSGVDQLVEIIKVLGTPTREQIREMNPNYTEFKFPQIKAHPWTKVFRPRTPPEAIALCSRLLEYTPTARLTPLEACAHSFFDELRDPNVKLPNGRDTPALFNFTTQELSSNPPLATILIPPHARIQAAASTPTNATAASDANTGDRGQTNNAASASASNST
T3 sequence (O60674 whole entry): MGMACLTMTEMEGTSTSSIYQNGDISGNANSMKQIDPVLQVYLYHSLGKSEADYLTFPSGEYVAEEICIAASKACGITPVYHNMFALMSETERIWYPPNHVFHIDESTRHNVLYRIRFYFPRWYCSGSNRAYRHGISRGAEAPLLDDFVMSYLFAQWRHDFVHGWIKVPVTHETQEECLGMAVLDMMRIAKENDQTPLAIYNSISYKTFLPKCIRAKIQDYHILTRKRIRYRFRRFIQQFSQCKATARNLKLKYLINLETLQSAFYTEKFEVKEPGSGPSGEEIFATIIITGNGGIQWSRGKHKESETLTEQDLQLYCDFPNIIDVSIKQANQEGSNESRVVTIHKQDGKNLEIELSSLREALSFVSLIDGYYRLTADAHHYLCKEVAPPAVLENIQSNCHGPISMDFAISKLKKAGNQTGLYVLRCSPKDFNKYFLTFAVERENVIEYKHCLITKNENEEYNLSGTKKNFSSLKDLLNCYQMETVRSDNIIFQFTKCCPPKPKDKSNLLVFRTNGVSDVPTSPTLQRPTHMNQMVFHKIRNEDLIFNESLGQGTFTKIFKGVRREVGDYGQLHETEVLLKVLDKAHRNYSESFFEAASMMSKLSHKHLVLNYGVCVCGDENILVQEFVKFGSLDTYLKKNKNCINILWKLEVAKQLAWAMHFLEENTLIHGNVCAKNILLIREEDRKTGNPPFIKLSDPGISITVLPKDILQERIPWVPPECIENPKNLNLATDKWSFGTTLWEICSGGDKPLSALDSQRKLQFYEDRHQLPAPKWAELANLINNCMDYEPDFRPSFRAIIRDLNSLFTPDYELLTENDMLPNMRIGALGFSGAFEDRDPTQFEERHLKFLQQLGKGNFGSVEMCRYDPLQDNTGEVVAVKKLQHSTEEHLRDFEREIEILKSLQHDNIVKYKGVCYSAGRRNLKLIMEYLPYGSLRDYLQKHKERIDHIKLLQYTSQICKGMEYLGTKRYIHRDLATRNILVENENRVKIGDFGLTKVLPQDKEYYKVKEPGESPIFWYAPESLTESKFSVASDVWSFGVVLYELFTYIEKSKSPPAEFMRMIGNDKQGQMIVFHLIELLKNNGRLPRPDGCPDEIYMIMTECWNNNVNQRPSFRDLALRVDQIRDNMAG
T4 sequence (P23443 whole entry): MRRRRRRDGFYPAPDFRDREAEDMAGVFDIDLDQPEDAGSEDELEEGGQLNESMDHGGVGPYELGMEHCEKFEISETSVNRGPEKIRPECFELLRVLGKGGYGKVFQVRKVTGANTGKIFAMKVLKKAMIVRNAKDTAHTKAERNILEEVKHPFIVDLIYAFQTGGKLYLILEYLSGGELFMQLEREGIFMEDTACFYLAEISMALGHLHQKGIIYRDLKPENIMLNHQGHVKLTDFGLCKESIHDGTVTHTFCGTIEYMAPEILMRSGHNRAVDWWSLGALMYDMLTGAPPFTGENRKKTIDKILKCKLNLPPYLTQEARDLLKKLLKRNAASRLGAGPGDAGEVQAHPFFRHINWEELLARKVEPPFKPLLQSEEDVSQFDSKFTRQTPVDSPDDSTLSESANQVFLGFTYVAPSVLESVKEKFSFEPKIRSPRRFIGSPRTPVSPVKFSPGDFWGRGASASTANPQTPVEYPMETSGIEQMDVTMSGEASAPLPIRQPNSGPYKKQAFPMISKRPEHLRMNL
T5 sequence (P36888 27-993): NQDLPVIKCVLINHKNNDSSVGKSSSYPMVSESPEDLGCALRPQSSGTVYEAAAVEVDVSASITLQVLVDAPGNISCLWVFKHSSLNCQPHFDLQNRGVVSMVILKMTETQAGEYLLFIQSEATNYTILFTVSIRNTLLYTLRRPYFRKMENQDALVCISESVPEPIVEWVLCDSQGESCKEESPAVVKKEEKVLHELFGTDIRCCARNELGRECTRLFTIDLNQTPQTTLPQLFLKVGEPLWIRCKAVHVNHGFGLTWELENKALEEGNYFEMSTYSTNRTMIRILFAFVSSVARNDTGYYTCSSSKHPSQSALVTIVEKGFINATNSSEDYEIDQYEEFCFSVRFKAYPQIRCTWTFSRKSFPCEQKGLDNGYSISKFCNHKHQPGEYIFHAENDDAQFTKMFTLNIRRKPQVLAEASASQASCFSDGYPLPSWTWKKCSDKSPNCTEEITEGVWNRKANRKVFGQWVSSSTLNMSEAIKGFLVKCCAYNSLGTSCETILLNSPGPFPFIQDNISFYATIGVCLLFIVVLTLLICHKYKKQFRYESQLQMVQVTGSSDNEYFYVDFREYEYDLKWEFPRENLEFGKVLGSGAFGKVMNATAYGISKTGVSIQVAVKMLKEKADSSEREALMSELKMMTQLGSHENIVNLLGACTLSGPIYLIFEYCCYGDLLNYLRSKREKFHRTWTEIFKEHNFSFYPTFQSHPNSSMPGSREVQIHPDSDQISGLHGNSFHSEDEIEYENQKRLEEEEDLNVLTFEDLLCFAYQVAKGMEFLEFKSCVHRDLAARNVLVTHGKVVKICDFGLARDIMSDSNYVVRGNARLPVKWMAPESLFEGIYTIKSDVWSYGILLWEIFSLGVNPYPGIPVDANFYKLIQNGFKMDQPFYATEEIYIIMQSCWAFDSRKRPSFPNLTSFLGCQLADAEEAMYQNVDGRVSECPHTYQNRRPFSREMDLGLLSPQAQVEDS

| SMILES | hKDR LANCE IC50/EC50 (hKDR) | hGSK3b LANCE IC50/EC50 (hGSK3b) | VEGF_ADSC\ECFC Angio Hoechst NucArea IC50/EC50 [1] | WntCondMedia_Alk Phos C2C12 IC50/EC50 [2] | VEGF_ADSC\ECFC Angio CD31 TubeArea IC50/EC50 [3] | Hela CellCycMod PI 2N IC50/EC50 (HeLa cells) | Hela CellCycMod PI 4N IC50/EC50 (HeLa cells) | Hela CellCycMod PI MI IC50/EC50 (HeLa cells) | Hela CellCycMod PI Cell Number IC50/EC50 (HeLa cells) | hJAK2 LANCE IC50/EC50 (hJAK2) | hp70S6K1 LANCE IC50/EC50 (hp70S6K1 (RPS6KB1)) | hFLT3 LANCE IC50/EC50 (hFLT3) | WntCondMedia_bCatenin C2C12 IC50/EC50 [4] | Hela CellCycMod PI S Phase IC50/EC50 (HeLa cells) | further results |
| --- | --- | --- | --- | --- | --- | --- | --- | --- | --- | --- | --- | --- | --- | --- | --- |
| CC[C@]1(O)C[C@H]2CN(CCc3c([nH]c4ccccc34)[C@@](C(=O)OC)(c3cc4c(cc3OC)N(C=O)[C@H]3[C@@](O)(C(=O)OC)[C@H](OC(C)=O)[C@]5(CC)C=CCN6CC[C@]43[C@@H]65)C2)C1 [NCGC00263543-01] | > 20 µM | > 20 µM | > 10 µM | 0.0051 µM | 0.0065 µM | 0.0062 µM | 0.0059 µM | 0.0061 µM | 0.0065 µM | > 20 µM | > 20 µM | > 20 µM | 0.004 µM | – | – |
| C=C(C)[C@H]1Cc2c(ccc3c2O[C@@H]2COc4cc(OC)c(OC)cc4[C@@H]2C3=O)O1 [NCGC00017358-15] | > 20 µM | > 20 µM | > 10 µM | 0.2539 µM | 0.0257 µM | 0.3111 µM | 0.3108 µM | 0.2229 µM | 0.1532 µM | > 20 µM | > 20 µM | > 20 µM | 2.9875 µM | > 10 µM | – |
| CCCOc1ccc2nc(NC(=O)OC)[nH]c2c1 [NCGC00018238-09] | > 20 µM | > 20 µM | > 10 µM | 0.0881 µM | 0.3276 µM | 0.0622 µM | 0.0567 µM | 0.0775 µM | 0.0467 µM | > 20 µM | > 20 µM | > 20 µM | 0.3653 µM | – | – |
| Cc1cc(O)c2ccccc2c1O [NCGC00253592-01] | 18.36 µM | 19.11 µM | 9.854 µM | 1.7548 µM | 4.8933 µM | > 10 µM | > 10 µM | > 10 µM | 2.4571 µM | > 20 µM | > 20 µM | > 20 µM | 4.3946 µM | > 10 µM | – |
| CCCCC1C(=O)N(c2ccccc2)N(c2ccc(O)cc2)C1=O (stereo not shown) [NCGC00094748-07] | > 20 µM | > 20 µM | 8.826 µM | 4.9189 µM | 3.2937 µM | > 10 µM | > 10 µM | > 10 µM | 1.6628 µM | > 20 µM | > 20 µM | > 20 µM | > 20 µM | > 10 µM | – |
| COC(=O)Nc1nc2ccc(C(=O)c3ccccc3)cc2[nH]1 [NCGC00016806-13] | – | – | – | – | – | – | – | – | – | – | – | – | – | – | IC50/EC50, hKDR LANCE (assay number 32) (hKDR): 1.43 µM; IC50/EC50, hGSK3b LANCE (assay number 34) (hGSK3b): > 20 µM; IC50/EC50, VEGF_ADSC\ECFC Angio Hoechst NucArea (assay number 3) [1]: > 10 µM; IC50/EC50, WntCondMedia_Alk Phos C2C12 (assay number 6) [2]: 0.2454 µM; IC50/EC50, VEGF_ADSC\ECFC Angio CD31 TubeArea (assay number 2) [3]: 0.3699 µM; IC50/EC50, Hela CellCycMod PI 2N (assay number 14) (HeLa cells): 0.0761 µM; IC50/EC50, Hela CellCycMod PI 4N (assay number 16) (HeLa cells): 0.08 µM; IC50/EC50, Hela CellCycMod PI Cell Number (assay number 18) (HeLa cells): 0.0542 µM; IC50/EC50, Hela CellCycMod PI MI (assay number 17) (HeLa cells): 0.0648 µM; IC50/EC50, hJAK2 LANCE (assay number 33) (hJAK2): > 20 µM; IC50/EC50, hp70S6K1 LANCE (assay number 31) (hp70S6K1 (RPS6KB1)): > 20 µM; IC50/EC50, hFLT3 LANCE (assay number 35) (hFLT3): > 20 µM; IC50/EC50, WntCondMedia_bCatenin C2C12 (assay number 5) [4]: 1.7387 µM |
| CCN(CC)CCNc1ccc(CO)c2sc3ccccc3c(=O)c12 [NCGC00016622-08] | – | – | – | – | – | – | – | – | – | – | – | – | – | – | IC50/EC50, hKDR LANCE (assay number 32) (hKDR): > 20 µM; IC50/EC50, hGSK3b LANCE (assay number 34) (hGSK3b): > 20 µM; IC50/EC50, VEGF_ADSC\ECFC Angio Hoechst NucArea (assay number 3) [1]: > 10 µM; IC50/EC50, WntCondMedia_Alk Phos C2C12 (assay number 6) [2]: 2.6738 µM; IC50/EC50, VEGF_ADSC\ECFC Angio CD31 TubeArea (assay number 2) [3]: 8.3546 µM; IC50/EC50, Hela CellCycMod PI 2N (assay number 14) (HeLa cells): 5.6786 µM; IC50/EC50, Hela CellCycMod PI 4N (assay number 16) (HeLa cells): > 10 µM; IC50/EC50, Hela CellCycMod PI Cell Number (assay number 18) (HeLa cells): 5.9199 µM; IC50/EC50, Hela CellCycMod PI MI (assay number 17) (HeLa cells): > 10 µM; IC50/EC50, Hela CellCycMod PI S Phase (assay number 15) (HeLa cells; S Phase): > 10 µM; IC50/EC50, hJAK2 LANCE (assay number 33) (hJAK2): > 20 µM; IC50/EC50, hp70S6K1 LANCE (assay number 31) (hp70S6K1 (RPS6KB1)): 17.07 µM; IC50/EC50, hFLT3 LANCE (assay number 35) (hFLT3): > 20 µM; IC50/EC50, WntCondMedia_bCatenin C2C12 (assay number 5) [4]: > 20 µM |
| COC(=O)Nc1nc2ccc([S+]([O-])c3ccccc3)cc2[nH]1 (stereo not shown) [NCGC00095157-05] | – | – | – | – | – | – | – | – | – | – | – | – | – | – | IC50/EC50, Basal_Viability ATP HT-29 (assay number 28) (HT-29): > 20 µM; IC50/EC50, hKDR LANCE (assay number 32) (hKDR): > 20 µM; IC50/EC50, Basal_Viability ATP HCT116 (assay number 25) (HCT116): 0.001 µM; IC50/EC50, hGSK3b LANCE (assay number 34) (hGSK3b): > 20 µM; IC50/EC50, VEGF_ADSC\ECFC Angio Hoechst NucArea (assay number 3) [1]: > 10 µM; IC50/EC50, Basal_Viability ATP DLD-1 (assay number 23) (DLD-1): > 20 µM; IC50/EC50, GSK3b inh pretreated_Viability ATP HCT116 (assay number 26) [5]: 0.001 µM; IC50/EC50, WntCondMedia_Alk Phos C2C12 (assay number 6) [2]: 0.5593 µM; IC50/EC50, Basal_Viability ATP RKO (assay number 29) (RKO): 0.001 µM; IC50/EC50, VEGF_ADSC\ECFC Angio CD31 TubeArea (assay number 2) [3]: 0.2884 µM; IC50/EC50, Hela CellCycMod PI 2N (assay number 14) (HeLa cells): 0.3263 µM; IC50/EC50, Hela CellCycMod PI 4N (assay number 16) (HeLa cells): 0.331 µM; IC50/EC50, Hela CellCycMod PI Cell Number (assay number 18) (HeLa cells): 0.2575 µM; IC50/EC50, Hela CellCycMod PI MI (assay number 17) (HeLa cells): 0.2411 µM; IC50/EC50, hJAK2 LANCE (assay number 33) (hJAK2): > 20 µM; IC50/EC50, Basal_Viability ATP SW480 (assay number 24) (SW480): > 20 µM; IC50/EC50, hp70S6K1 LANCE (assay number 31) (hp70S6K1 (RPS6KB1)): > 20 µM; IC50/EC50, hFLT3 LANCE (assay number 35) (hFLT3): > 20 µM; IC50/EC50, WntCondMedia_bCatenin C2C12 (assay number 5) [4]: 0.4683 µM |
| CC[C@@H]([C@H](C)O)n1ncn(-c2ccc(N3CCN(c4ccc(OC[C@@H]5CO[C@@](Cn6cncn6)(c6ccc(F)cc6F)C5)cc4)CC3)cc2)c1=O [NCGC00274060-01] | > 20 µM | > 20 µM | > 10 µM | 1.6342 µM | 6.461 µM | > 10 µM | > 10 µM | > 10 µM | > 10 µM | > 20 µM | > 20 µM | > 20 µM | 5.2923 µM | – | – |
| CC[C@@]1(O)C(=O)OCc2c1cc1n(c2=O)Cc2c-1nc1ccccc1c2/C=N/OC(C)(C)C [NCGC00253588-01] | > 20 µM | > 20 µM | 0.7994 µM | 0.0032 µM | 0.002 µM | – | > 10 µM | > 10 µM | 0.0022 µM | > 20 µM | > 20 µM | > 20 µM | 1.1571 µM | – | – |
| CCCCCCNC(=O)n1cc(F)c(=O)[nH]c1=O [NCGC00095165-07] | > 20 µM | > 20 µM | > 10 µM | 5.5533 µM | 4.486 µM | > 10 µM | > 10 µM | > 10 µM | > 10 µM | > 20 µM | > 20 µM | > 20 µM | 4.9829 µM | – | – |
| CC(=O)[C@]1(O)Cc2c(O)c3c(c(O)c2[C@@H](O[C@H]2C[C@H](N)[C@H](O)[C@H](C)O2)C1)C(=O)c1ccccc1C3=O [NCGC00093976-08] | > 20 µM | > 20 µM | 0.5381 µM | 0.5039 µM | 0.0208 µM | 0.0111 µM | > 10 µM | 0.6593 µM | 0.0142 µM | > 20 µM | > 20 µM | > 20 µM | 0.1001 µM | > 10 µM | – |
